# Laboratory results as given in patent publication US8569302B2, “Inhibitors of flaviviridae viruses” (Gilead Sciences, Inc., priority 2009, dated 2013).
# System: human hepatoma Huh-7 cell line harboring a HCV replicon
# Test: HCV replicon assay (inhibition of viral replication, luciferase readout)
# Format: cell-based
# Conditions: Hepatitis C virus, 72 h, Huh-7 HCV replicon cells, 3 days incubation
# Summary of the method: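 Read-outs: luciferase luminescence for replication inhibition, corrected by ITMN-191 (100% inhibition) wells, and calcein AM fluorescence for cytotoxicity. Cells were treated for 3 days at 37 °C with ten 3-fold compound dilutions in 0.44% final DMSO. Percent inhibition relative to DMSO was fitted with a Hill equation to give EC50 and CC50.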
row,Structure (SMILES),inhibition at 2 µM
1,"Cn1nccc1S(=O)(=O)N1CCC(N(c2cc(C#CC(C)(C)C)sc2C(=O)O)C(=O)[C@H]2CC[C@H](C)CC2)CC1 [Compound 203, 5-(3,3-Dimethyl-but-1-ynyl)-3-{(4-methyl-cyclohexanecarbonyl)-[1-(2-methyl-2H-pyrazole-3-sulfonyl)-piperidin-4-yl]-amino}-thiophene-2-carboxylic acid]",99.8%
2,"CN(C)c1ncc(S(=O)(=O)N2CCC(N(c3cc(C#CC(C)(C)C)sc3C(=O)O)C(=O)[C@H]3CC[C@H](C)CC3)CC2)cn1 [Compound 204, 3-[[1-(2-Dimethylamino-pyrimidine-5-sulfonyl)-piperidin-4-yl]-(4-methyl-cyclohexanecarbonyl)-amino]-5-(3,3-dimethyl-but-1-ynyl)-thiophene-2-carboxylic acid]",99.1%
3,"CC(C)(C)C#Cc1cc(N(C(=O)[C@H]2CC[C@H](C)CC2)C2CCN(S(=O)(=O)c3ccsc3)CC2)c(C(=O)O)s1 [Compound 205, 5-(3,3-Dimethyl-but-1-ynyl)-3-{(4-methyl-cyclohexanecarbonyl)-[1-(thiophene-3-sulfonyl)-piperidin-4-yl]-amino}-thiophene-2-carboxylic acid]",99.9%
4,"Cc1nc(S(=O)(=O)N2CCC(N(c3cc(C#CC(C)(C)C)sc3C(=O)O)C(=O)[C@H]3CC[C@H](C)CC3)CC2)cn1C [Compound 206, 5-(3,3-Dimethyl-but-1-ynyl)-3-[[1-(1,2-dimethyl-1H-imidazole-4-sulfonyl)-piperidin-4-yl]-(4-methyl-cyclohexanecarbonyl)-amino]-thiophene-2-carboxylic acid]",100%
5,"CC(C)(C)C#Cc1cc(N(C(=O)[C@H]2CC[C@H](C)CC2)C2CCN(S(=O)(=O)c3cccs3)CC2)c(C(=O)O)s1 [Compound 207, 5-(3,3-Dimethyl-but-1-ynyl)-3-{(4-methyl-cyclohexanecarbonyl)-[1-(thiophene-2-sulfonyl)-piperidin-4-yl]-amino}-thiophene-2-carboxylic acid]",99.8%
6,"CC(C)(C)C#Cc1cc(N(C(=O)[C@H]2CC[C@H](C)CC2)C2CCN(S(=O)(=O)c3cnc(=O)[nH]c3)CC2)c(C(=O)O)s1 [Compound 208, 5-(3,3-Dimethyl-but-1-ynyl)-3-{(4-methyl-cyclohexanecarbonyl)-[1-(2-oxo-1,2-dihydro-pyrimidine-5-sulfonyl)-piperidin-4-yl]-amino}-thiophene-2-carboxylic acid]",63.8%
7,"CC(C)(C)C#Cc1cc(N(C(=O)[C@H]2CC[C@H](C)CC2)C2CCN(S(=O)(=O)c3ccccn3)CC2)c(C(=O)O)s1 [Compound 209, 5-(3,3-Dimethyl-but-1-ynyl)-3-{(4-methyl-cyclohexanecarbonyl)-[1-(pyridine-2-sulfonyl)-piperidin-4-yl]-amino}-thiophene-2-carboxylic acid]",100%
8,"CC(C)(C)C#Cc1cc(N(C(=O)[C@H]2CC[C@H](C)CC2)C2CCN(S(=O)(=O)c3cccnc3)CC2)c(C(=O)O)s1 [Compound 210, 5-(3,3-Dimethyl-but-1-ynyl)-3-{(4-methyl-cyclohexanecarbonyl)-[1-(pyridine-3-sulfonyl)-piperidin-4-yl]-amino}-thiophene-2-carboxylic acid]",100%
9,"CC(C)(C)C#Cc1cc(N(C(=O)[C@H]2CC[C@H](C)CC2)[C@H]2CCN(S(=O)(=O)c3ccsc3)C2)c(C(=O)O)s1 [Compound 211, 5-(3,3-Dimethyl-but-1-ynyl)-3-{(4-methyl-cyclohexanecarbonyl)-[1-(thiophene-3-sulfonyl)-pyrrolidin-3-yl]-amino}-thiophene-2-carboxylic acid]",99.7%
10,"Cc1nc(S(=O)(=O)N2CC[C@H](N(c3cc(C#CC(C)(C)C)sc3C(=O)O)C(=O)[C@H]3CC[C@H](C)CC3)C2)cn1C [Compound 212, 5-(3,3-Dimethyl-but-1-ynyl)-3-[[1-(1,2-dimethyl-1H-imidazole-4-sulfonyl)-pyrrolidin-3-yl]-(4-methyl-cyclohexanecarbonyl)-amino]-thiophene-2-carboxylic acid]",99.3%
11,"CC(C)(C)C#Cc1cc(N(C(=O)[C@H]2CC[C@H](C)CC2)[C@H]2CCN(S(=O)(=O)c3cccs3)C2)c(C(=O)O)s1 [Compound 213, 5-(3,3-Dimethyl-but-1-ynyl)-3-{(4-methyl-cyclohexanecarbonyl)-[1-(thiophene-2-sulfonyl)-pyrrolidin-3-yl]-amino}-thiophene-2-carboxylic acid]",99.9%
12,"CC(C)(C)C#Cc1cc(N(C(=O)[C@H]2CC[C@H](C)CC2)[C@H]2CCN(S(=O)(=O)c3cnc(=O)[nH]c3)C2)c(C(=O)O)s1 [Compound 214, 5-(3,3-Dimethyl-but-1-ynyl)-3-{(4-methyl-cyclohexanecarbonyl)-[1-(2-oxo-1,2-dihydro-pyrimidine-5-sulfonyl)-pyrrolidin-3-yl]-amino}-thiophene-2-carboxylic acid]",69.9%
13,"CC(C)(C)C#Cc1cc(N(C(=O)[C@H]2CC[C@H](C)CC2)[C@H]2CCN(S(=O)(=O)c3ccccn3)C2)c(C(=O)O)s1 [Compound 215, 5-(3,3-Dimethyl-but-1-ynyl)-3-{(4-methyl-cyclohexanecarbonyl)-[1-(pyridine-2-sulfonyl)-pyrrolidin-3-yl]-amino}-thiophene-2-carboxylic acid]",100%
14,"CC(C)(C)C#Cc1cc(N(C(=O)[C@H]2CC[C@H](C)CC2)[C@H]2CCN(S(=O)(=O)c3cccnc3)C2)c(C(=O)O)s1 [Compound 216, 5-(3,3-Dimethyl-but-1-ynyl)-3-{(4-methyl-cyclohexanecarbonyl)-[1-(pyridine-3-sulfonyl)-pyrrolidin-3-yl]-amino}-thiophene-2-carboxylic acid]",100%
15,"CC(C)(C)C#Cc1cc(N(C(=O)[C@H]2CC[C@H](C)CC2)[C@H]2CC[C@@H](OC3CCOCC3)CC2)c(C(=O)O)s1 [Compound 219, 5-(3,3-dimethylbut-1-ynyl)-3-((1r,4R)-4-methyl-N-((1r,4R)-4-(tetrahydro-2H-pyran-4-yloxy)cyclohexyl)cyclohexanecarboxamido)thiophene-2-carboxylic acid]",100%
16,"CC(C)(C)C#Cc1cc(N(C(=O)[C@H]2CC[C@H](C)CC2)C2CCC(O[C@@H]3CO[C@H]4OCC[C@H]43)CC2)c(C(=O)O)s1 (stereo partly drawn) [Compound 221, 5-(3,3-dimethylbut-1-ynyl)-3-((1r,4R)-4-methyl-N-(4-((3S,3aS,6aR)-tetrahydro-2H-furo[2,3-b]furan-3-yloxy)cyclohexyl)cyclohexanecarboxamido)thiophene-2-carboxylic acid]",100%
17,"CC(C)(C)C#Cc1cc(N(C(=O)[C@H]2CC[C@H](C)CC2)[C@H]2CC[C@H](OC3CCN(C(=O)OC(C)(C)C)CC3)CC2)c(C(=O)O)s1 [Compound 222, 3-(N-(4-(1-(tert-butoxycarbonyl)piperidin-4-yloxy)cyclohexyl)-4-methylcyclohexanecarboxamido)-5-(3,3-dimethylbut-1-ynyl)thiophene-2-carboxylic acid]",97.7%
18,"CC(C)(C)C#Cc1cc(N(C(=O)[C@H]2CC[C@H](C)CC2)[C@H]2CC[C@H](OC3CCNCC3)CC2)c(C(=O)O)s1 [Compound 223, 5-(3,3-dimethylbut-1-ynyl)-3-(4-methyl-N-(4-(piperidin-4-yloxy)cyclohexyl)cyclohexanecarboxamido)thiophene-2-carboxylic acid]",100%
19,"CC(C)(C)C#Cc1cc(N(C(=O)[C@H]2CC[C@H](C)CC2)[C@H]2CC[C@H](OC3CCOC3)CC2)c(C(=O)O)s1 (some centres unmarked) [Compound 224, 5-(3,3-dimethylbut-1-ynyl)-3-(4-methyl-N-(4-(tetrahydrofuran-3-yloxy)cyclohexyl)cyclohexanecarboxamido)thiophene-2-carboxylic acid]",99.9%
20,CC(C)(C)C#Cc1cc(N(C(=O)[C@H]2CC[C@H](C)CC2)[C@H]2CC[C@H](O[C@H]3CCN(C(=O)OC(C)(C)C)C3)CC2)c(C(=O)O)s1 [Compound 225],98.4%
21,"CC(C)(C)C#Cc1cc(N(C(=O)[C@H]2CC[C@H](C)CC2)[C@H]2CC[C@H](O[C@H]3CCNC3)CC2)c(C(=O)O)s1 [Compound 226, 5-(3,3-dimethylbut-1-ynyl)-3-(4-methyl-N-(4-((S)-pyrrolidin-3-yloxy)cyclohexyl)cyclohexanecarboxamido)thiophene-2-carboxylic acid]",99.9%
22,C[C@@H]1CC[C@@H](C(=O)N(c2cc(C#CC(C)(C)C)sc2C(=O)O)[C@H]2CC[C@H](OC3CCOC3)CC2)[C@@H](O)C1 (some centres unmarked) [Compound 227],100%
23,"C[C@H]1CC[C@H](C(=O)N(c2cc(C#CC3CC3)sc2C(=O)O)[C@H]2CC[C@H](Oc3ccccn3)CC2)CC1 [Compound 229, 5-(2-cyclopropylethynyl)-3-(4-methyl-N-(4-(pyridin-2-yloxy)cyclohexyl)cyclohexanecarboxamido)thiophene-2-carboxylic acid]",82.6%
24,"CC(C)(C)C#Cc1cc(N(C(=O)[C@H]2CC[C@H](C)CC2)[C@H]2CC[C@H](O[C@@H]3CCN(C(=O)OC(C)(C)C)C3)CC2)c(C(=O)O)s1 [Compound 230, 3-(N-(4-((R)-1-(tert-butoxycarbonyl)pyrrolidin-3-yloxy)cyclohexyl)-4-methylcyclohexanecarboxamido)-5-(3,3-dimethylbut-1-ynyl)thiophene-2-carboxylic acid]",98.4%
25,"CC(C)(C)C#Cc1cc(N(C(=O)[C@H]2CC[C@H](C)CC2)[C@H]2CC[C@H](O[C@@H]3CCNC3)CC2)c(C(=O)O)s1 [Compound 231, 5-(3,3-dimethylbut-1-ynyl)-3-(4-methyl-N-(4-((R)-pyrrolidin-3-yloxy)cyclohexyl)cyclohexanecarboxamido)thiophene-2-carboxylic acid]",99.9%
26,"CC1=CCC(C(=O)N(c2cc(C#CC(C)(C)C)sc2C(=O)O)[C@H]2CC[C@H](O[C@H]3CCOC3)CC2)[C@@H](C)C1 (stereo partly drawn) [Compound 301, 5-(3,3-dimethyl-but-1-ynyl)-3-{(4,6S-dimethyl-cyclohex-3-enecarbonyl)-[4-(tetrahydro-furan-3S-yloxy)-trans-cyclohexyl]-amino}-thiophene-2-carboxylic acid]",99.8%
